Laboratory results reported in ChEMBL document CHEMBL4842364 (J Med Chem, 2021).
The source made the active and inactive calls. No cut-off for these calls is given here.

Assays:
[1] = AUC(0 to 24 hrs) in mouse at 10 mg/kg, po; assay type: ADME, organism-based; set-up: time < 24 hr, route oral, dose 10 mg/kg; conditions: in vivo
[2] = AUC(0 to 24 hrs) in mouse at 60 mg/kg, po; assay type: ADME, organism-based; set-up: time < 24 hr, route oral, dose 60 mg/kg; conditions: in vivo
NCI-H23 = assay: Antiproliferative activity against human NCI-H23 cells assessed as reduction in cell viability after 4 days by CellTiter-Glo assay
[3] = Intrinsic clearance in mouse microsomes; assay type: ADME, Microsome
[4] = Octanol/buffer distribution coefficient, logD of the compound at pH 7.4; assay type: physicochemical
Wee1-like protein kinase = Wee1-like protein kinase (Homo sapiens, UniProt P30291)
Chain of Wee1-like protein kinase (P30291 whole entry): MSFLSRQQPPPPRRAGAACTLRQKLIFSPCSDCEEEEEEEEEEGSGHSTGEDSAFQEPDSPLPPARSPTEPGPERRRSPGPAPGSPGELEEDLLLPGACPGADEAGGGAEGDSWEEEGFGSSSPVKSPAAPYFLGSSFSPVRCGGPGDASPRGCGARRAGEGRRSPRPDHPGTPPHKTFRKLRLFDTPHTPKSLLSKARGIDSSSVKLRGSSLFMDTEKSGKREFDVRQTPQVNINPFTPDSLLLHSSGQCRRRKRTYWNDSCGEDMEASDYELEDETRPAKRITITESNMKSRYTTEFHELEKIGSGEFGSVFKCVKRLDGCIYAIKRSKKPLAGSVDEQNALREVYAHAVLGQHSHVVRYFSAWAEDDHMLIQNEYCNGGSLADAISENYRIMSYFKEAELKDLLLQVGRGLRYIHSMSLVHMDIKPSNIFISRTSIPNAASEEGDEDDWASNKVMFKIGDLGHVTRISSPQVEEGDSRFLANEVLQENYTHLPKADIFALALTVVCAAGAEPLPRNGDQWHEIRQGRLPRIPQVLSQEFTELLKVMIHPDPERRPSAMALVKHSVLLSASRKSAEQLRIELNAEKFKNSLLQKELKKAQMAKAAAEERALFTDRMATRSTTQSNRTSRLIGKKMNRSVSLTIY
Description: Displacement of Alexa Fluor labelled kinase tracer178 from WEE1 (unknown origin) incubated for 60 mins by FRET assay

[5] = Intrinsic clearance in human microsomes; assay type: ADME, Microsome
[6] = AUC(0 to 24 hrs) in rat at 60 mg/kg, po; assay type: ADME, organism-based; set-up: time < 24 hr, route oral, dose 60 mg/kg; conditions: in vivo
[7] = Plasma protein binding in human; assay type: ADME, cell-free; conditions: read-out: PPB (converted)
[8] = AUC in mouse plasma at 80 mg/kg, po administered once daily for 28 days; assay type: ADME, organism-based; set-up: time 28 day, dose 80 mg/kg
[9] = Permeability of the compound across basolateral to apical side in human Caco-2 cells; assay type: ADME, cell-based; conditions: read-out: permeability
[10] = Permeability of the compound across apical to basolateral side in human Caco-2 cells; assay type: ADME, cell-based; conditions: read-out: permeability
A-427 [11] = assay: Antiproliferative activity against human A-427 cells assessed as reduction in cell viability after 3 days by CellTiter-Glo assay; assay type: functional, cell-based; conditions: A-427, 72 h
A-427 [12] = assay: Antitumor activity against human A-427 cells xenografted in SCID mouse assessed as reduction in tumor growth at 80 mg/kg, po administered once daily for 28 days and measured twice per weeks; assay type: functional, organism-based; conditions: time 28.0 day
Cytochrome P450 3A4 = Cytochrome P450 3A4 (Homo sapiens, UniProt P08684); assay: Inhibition of CYP3A4 (unknown origin); assay type: ADME
Chain of Cytochrome P450 3A4 (P08684 whole entry): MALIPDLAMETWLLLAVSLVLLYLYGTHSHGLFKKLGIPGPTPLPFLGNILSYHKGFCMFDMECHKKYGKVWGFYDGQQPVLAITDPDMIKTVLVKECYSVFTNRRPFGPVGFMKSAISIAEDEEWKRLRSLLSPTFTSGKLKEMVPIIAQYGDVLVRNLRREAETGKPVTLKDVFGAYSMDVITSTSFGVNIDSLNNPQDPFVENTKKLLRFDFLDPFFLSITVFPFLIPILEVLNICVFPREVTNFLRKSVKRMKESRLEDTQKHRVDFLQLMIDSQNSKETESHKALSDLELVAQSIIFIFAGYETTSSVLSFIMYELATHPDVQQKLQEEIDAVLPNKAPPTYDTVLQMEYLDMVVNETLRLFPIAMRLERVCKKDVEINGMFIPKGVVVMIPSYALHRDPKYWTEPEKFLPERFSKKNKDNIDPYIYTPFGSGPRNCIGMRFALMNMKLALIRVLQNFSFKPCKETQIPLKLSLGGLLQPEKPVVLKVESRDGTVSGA

[13] = Efflux ratio of permeability from basolateral to apical side over apical to basolateral side in human Caco-2 cells; assay type: ADME, cell-based

| Compound | AUC(0-t) at 24 h [2] [µM·h] | IC50 (NCI-H23; Homo sapiens, NCI-H23, 96 h) [nM] | CLint scaled [3] [mL/min/kg] | logD [4] | IC50 (Wee1-like protein kinase) [nM] | CLint scaled [5] [mL/min/kg] | also measured |
| --- | --- | --- | --- | --- | --- | --- | --- |
| C=CCn1c(=O)c2cnc(Nc3ccc4c(c3)CNCC4)nc2n1-c1cccc(C(C)(C)O)n1 | 2.9 | 105 | 170 | 1.3 |  |  | AUC(0-t) at 24 h [1]: 0.2 µM·h |
| CC[C@@]1(O)CCc2ccc(-n3c4nc(Nc5ccc(N6CCN(C)CC6)cc5)ncc4c(=O)n3CC=C(F)F)nc21 |  | 5780 |  |  | 22 |  |  |
| C=CCn1c(=O)c2cnc(Nc3ccc4c(c3)CNCC43CC3)nc2n1-c1cccc(C(C)(C)O)n1 | 6.4 | 54 | 1400 | 1.9 | 2.4 |  |  |
| CC[C@@]1(O)CCc2ccc(-n3c4nc(Nc5ccc(N6CCN(C)CC6)cc5)ncc4c(=O)n3CC3CC3)nc21 |  | 3360 |  |  | 64 |  |  |
| C=CCn1c(=O)c2cnc(Nc3ccc(N4CCN(C)CC4)cc3)nc2n1-c1ccc2c(n1)C(O)(C(F)(F)F)CC2 (single isomer, unassigned) | 33 | 185 | 126 | 2.8 | 3.6 | 71 | AUC(0-t) at 24 h [6]: 37 µM·h |
| C=CCn1c(=O)c2cnc(Nc3cccc(N4CCN(C)CC4)c3)nc2n1-c1ccc2c(n1)[C@@](O)(CC)CC2 |  | 277 | 1110 | 2.6 | 3.2 | 135 |  |
| C=CCn1c(=O)c2cnc(Nc3ccc(N4CCN(C)CC4)cc3)nc2n1-c1ccc2c(n1)[C@@](N)(CC)CC2 | 3.9 | 26 | 152 | 1.4 | 3.2 | 26 |  |
| C=CCn1c(=O)c2cnc(Nc3ccc4c(c3)CN(CCO)CC4)nc2n1-c1cccc(C(C)(C)O)n1 | 1.8 | 274 | 307 | 2.2 | 2.5 |  |  |
| C=CCn1c(=O)c2cnc(Nc3ccc(N4CCN(C)CC4)cc3)nc2n1-c1cccc(C(C)(C)O)n1 [ADAVOSERTIB] | 22 | 122 |  | 2.2 |  | 34 | AUC ([1]; 24 h): 0.8 µM·h; fraction unbound [7]: 0.361; AUC at 672 h [8]: 44 µM·h; Papp B→A [9]: 42 ×10⁻⁶ cm/s; Papp A→B [10]: 3.4 ×10⁻⁶ cm/s; IC50 (A-427 [11]): 78 nM; Activity (A-427 [12]): Active |
| C=CCn1c(=O)c2cnc(Nc3ccc4c(c3)CN(C)CC4)nc2n1-c1cccc(C(C)(C)O)n1 |  | 64 | 603 | 2.4 | 2.6 |  | AUC(0-t) at 24 h [1]: 1 µM·h |
| C=CCn1c(=O)c2cnc(Nc3ccc(N4CCN(C)CC4)cc3)nc2n1-c1ccc2c(n1)C(O)CC2 (stereo in doubt; 9) |  |  |  |  | 4.3 |  | IC50 (NCI-H23; nci-h23): 2520 nM |
| C=CCn1c(=O)c2cnc(Nc3ccc(N4CCN(C)CC4)cc3)nc2n1-c1ccc2c(n1)C(F)(F)CC2 |  | 1530 | 293 | 2.8 | 6.4 | 48 |  |
| C=CCn1c(=O)c2cnc(Nc3ccc4c(ccn4C4CCN(C)CC4)c3)nc2n1-c1ccc2c(n1)[C@@](O)(CC)CC2 |  | 116 | 124 | 2.7 | 2.6 | 267 |  |
| Cc1cn(-c2c(Cl)cccc2Cl)c(=O)c2cnc(Nc3ccc(N4CCN(C)CC4)cc3)nc12 |  | 226 |  | 3.4 | 2 | 39 | IC50 (Cytochrome P450 3A4): 4500 nM; fraction unbound [7]: 0.027; Papp B→A [9]: 1.8 ×10⁻⁶ cm/s; Papp A→B [10]: 1.5 ×10⁻⁶ cm/s; efflux ratio [13]: 1.1 |
| C=CCn1c(=O)c2cnc(Nc3ccc4c(c3)CN(C)CC43CC3)nc2n1-c1cccc(C(C)(C)O)n1 |  |  | 1060 | 3.1 |  |  | AUC(0-t) at 24 h [1]: 0.7 µM·h |
| C=CCn1c(=O)c2cnc(Nc3ccc(N4CCN(C)CC4)cc3)nc2n1-c1ccc2c(n1)[C@@](O)(C(F)F)CC2 |  | 270 | 108 | 2.3 | 2.6 | 47 |  |
| C=CCn1c(=O)c2cnc(Nc3ccc(N4CCNCC4)cc3)nc2n1-c1ccc2c(n1)[C@@](O)(CC)CC2 | 1 | 212 | 52 | 1 | 3.2 | 26 |  |
| C=CCn1c(=O)c2cnc(Nc3ccc4c(c3)CNCC43CC3)nc2n1-c1ccc2c(n1)[C@@](O)(C(F)(F)F)CC2 |  | 153 | 555 | 2.1 | 2.5 | 97 |  |
| C=CCn1c(=O)c2cnc(Nc3ccc(N4CCN(C)CC4)cc3)nc2n1-c1ccc2c(c1)C(C)(O)CC2 (single isomer, unassigned) | 19 | 186 | 206 | 2.5 | 3.3 | 26 | AUC(0-t) at 24 h [6]: 17 µM·h |
| C=CCn1c(=O)c2cnc(Nc3ccc(N4CCN(C)CC4)cc3)nc2n1-c1ccc2c(n1)[C@@](O)(CC)CCC2 | 35 | 56 | 126 | 2.9 | 3.7 | 71 | AUC(0-t) at 24 h [6]: 24 µM·h |
| C=CCn1c(=O)c2cnc(Nc3cc(N4CCN(C)CC4)c4ccn(C)c4c3)nc2n1-c1ccc2c(n1)[C@@](O)(CC)CC2 | 14 | 109 | 395 | 2.7 | 12 | 41 |  |
| C=CCn1c(=O)c2cnc(Nc3ccc(N4CCN(C)CC4)c(C)c3)nc2n1-c1ccc2c(n1)[C@@](O)(CC)CC2 | 59 | 58 | 191 | 3 | 3.1 | 102 | AUC(0-t) at 24 h [6]: 43 µM·h |
| C=CCn1c(=O)c2cnc(Nc3ccc(N4CCN(C)CC4)c(C)c3)nc2n1-c1ccc2c(n1)[C@](C)(O)CC2 | 52 | 130 | 121 | 2.6 | 2.3 | 80 | AUC(0-t) at 24 h [6]: 40 µM·h |
| C=CCn1c(=O)c2cnc(Nc3ccc(N4CCN(C)CC4)cc3)nc2n1-c1ccc2c(n1)[C@@](C)(O)CC2 | 21 | 1140 | < 8.6 | 2 | 5.2 | 18 | AUC(0-t) at 24 h [6]: 14 µM·h |
| C=CCn1c(=O)c2cnc(Nc3ccc(N4CCN(C)CC4)cc3)nc2n1-c1ccc2c(n1)C(O)(C1CC1)CC2 (single isomer, unassigned) |  | 186 | 78 | 2.4 | 2.9 | 39 |  |
| C=CC(F)(F)n1c(=O)c2cnc(Nc3ccc(N4CCN(C)CC4)cc3)nc2n1-c1ccc2c(n1)[C@@](O)(CC)CC2 |  | 4720 |  |  | > 100 |  |  |
| C=CCn1c(=O)c2cnc(Nc3ccc(N4CCN(C)CC4)cc3)nc2n1-c1ccc2c(n1)C(O)CC2 (stereo in doubt; 8) |  | 2300 | < 38 | 1.7 | 5.7 | 12 | AUC(0-t) at 24 h [6]: 0.3 µM·h |
| C=CCn1c(=O)c2cnc(Nc3ccc4c(c3)CCN(C)C4)nc2n1-c1cccc(C(C)(C)O)n1 | 9.6 | 81 | 186 | 2.5 | 2.6 |  |  |
| C=CCn1c(=O)c2cnc(Nc3ccc(N4CCN(C)CC4)cc3)nc2n1-c1ccc2c(n1)[C@](C)(O)CCC2 | 54 | 177 | 66 | 2.6 | 3.7 | 18 | AUC at 672 h [8]: 83 µM·h; IC50 (A-427 [11]): 155 nM; AUC(0-t) at 24 h [6]: 9.4 µM·h; Activity (A-427 [12]): Active |
| C=CCn1c(=O)c2cnc(Nc3ccc(N4CCN(C)CC4)cc3)nc2n1-c1ccc2c(n1)C(C)(O)CO2 (single isomer, unassigned) |  | 1420 | < 38 | 1.4 | 4.6 | 17 |  |
